Values joined by “and” are separate entries in the source; they are usually repeats but may differ in a detail not shown here. Equal entries are not always repeated. Where two headings read alike, the source gives them in different places.
How the values were obtained:
Format in all cases: in vivo
[1] = tested on: scented mayweed (Matricaria chamomila L; MATCH); assay: Postemergence herbicidal activity of mixtures in cereal crops (greenhouse, visual injury); conditions: Matricaria, post-emergence, read-out: MATCH Ob
Procedure, shortened: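 Weeds grown in greenhouse (~14 h photoperiod, ~18/17 °C day/night) to second–third true leaf stage, sprayed postemergence with compound and second cereal herbicide alone or combined; solvent-blank controls. Injury scored visually after 20-22 days, 0–100% (complete kill); expected mixture activity = A+B−(A×B/100).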

[2] = tested on: Marsilea crenata PRESL (MASCR); assay: Herbicidal mixtures for weed control in transplanted paddy rice (in-water application, visual % injury)
Procedure, shortened: (§1)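 Mixtures injected into paddy water of flooded pots (transplanted rice, weeds at 2nd–3rd true leaf stage, ~29/26 °C greenhouse); compounds A, C, D dosed as acid equivalent, partners as active ingredient, in acetone/crop oil concentrate carrier. Injury scored visually after 3 weeks versus untreated plants, 0 (none) to 100% (complete kill).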

Cyperus species (CYPSS) = assay: as above; conditions: for % Injury CYPES Ob: CYPES = Cyperus esculentus
Procedure, shortened: as §1

[3] = tested on: Leptochloa chinensis (L.) NEES (LEFCH); assay: as above
Procedure, shortened: as §1

[4] = tested on: Fimbristylis miliacea (L.) VAHL (FIMMI); assay: as above
Procedure, shortened: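 Weeds sown in flooded puddled mineral soil (pH ~7.3–7.8, ~1.0% organic matter) and treated at second–third true leaf stage by injecting acetone/2.5% Agri-dex stock into the paddy water. A, C and D dosed as acid equivalent, partner herbicides as active ingredient. Injury scored visually after 3 weeks in greenhouse, 0–100% versus untreated plants.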

[5] = Quinclorac 140 g/ha alone (Compound A Methyl half)
[6] = Quinclorac 140 g/ha alone (Compound A TEA half)
[7] = Compound A Methyl 17.5 g/ha alone
[8] = Compound A Methyl 35 g/ha alone

Compound: COc1c(Cl)ccc(-c2cc(N)c(Cl)c(C(=O)O)n2)c1F [Compound A TEA, 4-amino-3-chloro-6-(4-chloro-2-fluoro-3-methoxyphenyl)pyridine-2-carboxylic acid]
- pest or weed control at 8.75 g/ha ([1]; 8.75 g/ha alone): 71%
- pest or weed control at 8.75 g/ha ([1]; 8.75 g/ha): 71%
- pest or weed control at 17.5 g/ha ([1]; 17.5 g/ha alone): 76%
- pest or weed control at 17.5 g/ha ([1]; 17.5 g/ha): 76%
- pest or weed control at 35 g/ha ([1]; 35 g/ha alone): 84%
- pest or weed control at 70 g/ha ([1]; 70 g/ha alone): 94%
- pest or weed control at 140 g/ha ([1]; 140 g/ha): 65%
- % Injury MASCR Ob ([2]; Compound A TEA 35 g/ha alone): 60%
- % Injury CYPES Ob (Cyperus species (CYPSS); Compound A TEA 17.5 g/ha alone): 30%
- % Injury CYPES Ob (Cyperus species (CYPSS); Compound A TEA 17.5 g/ha alone (Table 112)): 30%
- % Injury CYPES Ob (Cyperus species (CYPSS); Compound A TEA 35 g/ha alone (Table 112)): 70%
- % Injury Ob (Cyperus species (CYPSS); CYPES, 35 g/ha alone): 20% and 25%
- % Injury Ob (Cyperus species (CYPSS); CYPES, 70 g/ha alone): 50%
- % Injury Ob (Cyperus species (CYPSS); CYPIR, 35 g/ha alone): 10%
- % Injury Ob (Cyperus species (CYPSS); CYPIR, 70 g/ha alone): 20%
- % Injury Ob ([3]; 35 g/ha alone): 80%
- % Injury Ob ([3]; 70 g/ha alone): 99%
- % Injury LEFCH Ob ([3]; Compound A TEA 17.5 g/ha alone): 10%
- % Injury LEFCH Ob ([3]; Compound A TEA 35 g/ha alone): 15%
- % Injury Ob ([4]; 17.5 g/ha alone): 30%
- % Injury Ob ([4]; 35 g/ha alone): 0%
- % Injury Ob ([4]; 70 g/ha alone): 0%
- % Injury FIMMI Ob ([4]; Compound A TEA 17.5 g/ha alone): 30%

Compound: O=C(O)c1c(Cl)ccc2cc(Cl)cnc12 [Quinclorac]
- % Injury MASCR Ob [2, 5]: 0%
- % Injury MASCR Ob [2, 6]: 0%
- % Injury CYPES Ob (Cyperus species (CYPSS); [5]): 0%
- % Injury CYPES Ob (Cyperus species (CYPSS); [6]): 0%
- % Injury LEFCH Ob [3, 5]: 0%
- % Injury LEFCH Ob [3, 6]: 0%
- % Injury FIMMI Ob [4, 5]: 0%
- % Injury FIMMI Ob [4, 6]: 0%

Compound: COC(=O)c1nc(-c2ccc(Cl)c(OC)c2F)nc(N)c1Cl [Compound B Methyl, 6-amino-5-chloro-2-(4-chloro-2-fluoro-3-methoxyphenyl)pyrimidine-4-carboxylic acid methyl ester]
- pest or weed control at 8.75 g/ha ([1]; 8.75 g/ha alone): 10%
- pest or weed control at 17.5 g/ha ([1]; 17.5 g/ha alone): 10%
- pest or weed control at 35 g/ha ([1]; 35 g/ha alone): 40%
- pest or weed control at 70 g/ha ([1]; 70 g/ha alone): 45%

Compound: COC(=O)c1nc(-c2ccc(Cl)c(OC)c2F)cc(N)c1Cl [Compound A Methyl, 4-amino-3-chloro-6-(4-chloro-2-fluoro-3-methoxyphenyl)pyridine-2-carboxylic acid methyl ester]
- pest or weed control at 17.5 g/ha ([1]; 17.5 g/ha): 15%
- pest or weed control at 35 g/ha ([1]; 35 g/ha): 68%
- pest or weed control at 70 g/ha ([1]; 70 g/ha): 65%
- % Injury MASCR Ob [2, 7]: 0%
- % Injury MASCR Ob [2, 8]: 50%
- % Injury CYPES Ob (Cyperus species (CYPSS); [7]): 50%
- % Injury CYPES Ob (Cyperus species (CYPSS); Compound A Methyl 35 g/ha alone (Table 112)): 60%
- % Injury Ob (Cyperus species (CYPSS); CYPES, 4.38 g/ha alone): 0%
- % Injury Ob (Cyperus species (CYPSS); CYPES, 8.75 g/ha alone): 15%
- % Injury Ob ([3]; 8.75 g/ha alone): 0%
- % Injury Ob ([3]; 17.5 g/ha alone): 0%
- % Injury Ob ([3]; 35 g/ha alone): 0%
- % Injury LEFCH Ob [3, 7]: 10%
- % Injury LEFCH Ob [3, 8]: 20%
- % Injury Ob ([4]; 17.5 g/ha alone): 20%
- % Injury FIMMI Ob [4, 7]: 20%

From patent US10556865B2, “Synergistic herbicidal composition containing certain pyridine or pyrimidine carboxylic acids and certain cereal and rice herbicides” (Dow AgroSciences, LLC, priority 2007, dated 2020)
